Measured values published in the OligoGym collection.
After the bases stand the sugars from the 5' end (letter, count) and the backbone: PS all phosphorothioate, else s phosphorothioate and o phosphodiester by linkage. Methylation of C is not given here. e = 2'-O-(2-methoxyethyl) (MOE); k = constrained ethyl (cEt); d = 2'-deoxy (DNA)

Target: SOD1
Conditions: ASO

CTTTGCCCAAGTCATCTGCT (sugars e5 d10 e5, PS)
target mRNA inhibition (HepG2, 4 µM): 56% | target mRNA inhibition (HepG2, 12 µM): 86%

CCTCATAATAAGTGCCA (sugars e2 k2 d9 k2 e2, PS)
target mRNA inhibition (HepG2, 5 µM): 31%

TCAGACTACATCCAAGG (sugars e2 k2 d8 k2 e3, PS)
target mRNA inhibition (HepG2, 0.1875 µM): 37% | target mRNA inhibition (HepG2, 0.75 µM): 71% | target mRNA inhibition (HepG2, 3 µM): 81% | target mRNA inhibition (HepG2, 4 µM): 79% | target mRNA inhibition (HepG2, 12 µM): 92%

TGATCATAAATCAGTTT (sugars e2 k2 d9 k2 e2, PS)
target mRNA inhibition (HepG2, 5 µM): 38%

CTGGATAGAGGATTAAA (sugars e3 k2 d7 k2 e3, PS)
target mRNA inhibition (HepG2, 3 µM): 26%

CGCCCTTCAGCACGCAC (sugars e2 k2 d8 k2 e3, PS)
target mRNA inhibition (HepG2, 4 µM): 67%

CATCCTTTGGCCCACCG (sugars e3 k2 d7 k2 e3, PS)
target mRNA inhibition (HepG2, 3 µM): 38%

CAGTTTCTCACTACAGG (sugars e2 k2 d9 k2 e2, PS)
target mRNA inhibition (HepG2, 5 µM): 38%

GGCGATCCCAATTACACCAC (sugars e5 d10 e5, linkages s1 o3 s11 o3 s1)
target mRNA inhibition (A431, 0.12 µM): 0% | target mRNA inhibition (A431, 0.6 µM): 0% | target mRNA inhibition (A431, 3 µM): 0% | target mRNA inhibition (A431, 15 µM): 30% | target mRNA inhibition (HepG2, 0.222 µM): 24% | target mRNA inhibition (HepG2, 0.667 µM): 34% | target mRNA inhibition (HepG2, 2 µM): 79% | target mRNA inhibition (HepG2, 6 µM): 55%

TCACAGGCTTGAATGAC (sugars e2 k2 d8 k2 e3, PS)
target mRNA inhibition (HepG2, 5 µM): 28%

TGGACCACCAGTGTGCGGCC (sugars e5 d10 e5, PS)
target mRNA inhibition (HepG2, 5 µM): 28%

AAGTCACACAATTACAC (sugars e2 k2 d8 k2 e3, PS)
target mRNA inhibition (HepG2, 5 µM): 41%

ACTCTGAAAAAGTCACACAA (sugars e5 d10 e5, PS)
target mRNA inhibition (HepG2, 5 µM): 21%

GGGCCTCAGACTACATC (sugars e3 k2 d7 k2 e3, PS)
target mRNA inhibition (HepG2, 3 µM): 24%

ATGTTTATCAGGATACA (sugars e4 d8 e5, linkages s1 o2 s9 o2 s2)
target mRNA inhibition (A431, 0.062 µM): 0% | target mRNA inhibition (A431, 0.185 µM): 4% | target mRNA inhibition (A431, 0.556 µM): 10% | target mRNA inhibition (A431, 1.667 µM): 33% | target mRNA inhibition (A431, 5 µM): 56% | target mRNA inhibition (A431, 15 µM): 50% | target mRNA inhibition (SH-SY5Y, 0.062 µM): 0% | target mRNA inhibition (SH-SY5Y, 0.185 µM): 4% | target mRNA inhibition (SH-SY5Y, 0.556 µM): 32% | target mRNA inhibition (SH-SY5Y, 1.667 µM): 37% | target mRNA inhibition (SH-SY5Y, 5 µM): 61% | target mRNA inhibition (SH-SY5Y, 15 µM): 83%

TACAGGGTTTTTATTCA (sugars e3 k2 d7 k2 e3, PS)
target mRNA inhibition (HepG2, 3 µM): 11%

ACAGGGTTTTTATTCAC (sugars e3 k2 d7 k2 e3, PS)
target mRNA inhibition (HepG2, 3 µM): 10%

TCCAAGTGATCATAAAT (sugars e2 k2 d8 k2 e3, PS)
target mRNA inhibition (HepG2, 5 µM): 42%

TGCCCTGCACTGGGCCGTCG (sugars e5 d10 e5, PS)
target mRNA inhibition (HepG2, 4 µM): 38%

GATCCCAATTACACCAC (sugars e2 k2 d8 k2 e3, PS)
target mRNA inhibition (HepG2, 4 µM): 41%

GTGATCATAAATCAGTT (sugars e2 k2 d8 k2 e3, PS)
target mRNA inhibition (HepG2, 5 µM): 33%

ATACAGGGTTTTTATTC (sugars e3 k2 d7 k2 e3, PS)
target mRNA inhibition (HepG2, 3 µM): 3%

TTAGTTTGAATTTGGAT (sugars e2 k2 d8 k2 e3, PS)
target mRNA inhibition (HepG2, 5 µM): 31%

GTTTCTCACTACAGGTA (sugars e2 k2 d9 k2 e2, PS)
target mRNA inhibition (HepG2, 5 µM): 38%

CATTTCTACAGCTAGC (sugars ekddddddddekekee, linkages s1 o1 s8 o3 s2)
target mRNA inhibition (A431, 0.12 µM): 3% | target mRNA inhibition (A431, 0.6 µM): 3% | target mRNA inhibition (A431, 3 µM): 2% | target mRNA inhibition (A431, 15 µM): 11%

TTAATGTTTATCAGGATACA (sugars e5 d10 e5, PS)
target mRNA inhibition (HepG2, 5 µM): 34%

TCTGGATAGAGGATTAA (sugars e3 k2 d7 k2 e3, PS)
target mRNA inhibition (HepG2, 3 µM): 25%

TCAGACTACATCCAAGG (sugars e2 k2 d9 k2 e2, PS)
target mRNA inhibition (HepG2, 0.1875 µM): 0% | target mRNA inhibition (HepG2, 0.75 µM): 47% | target mRNA inhibition (HepG2, 3 µM): 75% | target mRNA inhibition (HepG2, 4 µM): 78% | target mRNA inhibition (HepG2, 12 µM): 90%

CTTCTGCTCGAAATTGA (sugars e3 k2 d7 k2 e3, PS)
target mRNA inhibition (HepG2, 3 µM): 13%

CACGCCGAGGTCCTGGTTCC (sugars e5 d10 e5, PS)
target mRNA inhibition (HepG2, 4 µM): 23%

GTGTTTAATGTTTATC (sugars ekddddddddekekee, linkages s1 o1 s8 o3 s2)
target mRNA inhibition (A431, 0.12 µM): 10% | target mRNA inhibition (A431, 0.6 µM): 32% | target mRNA inhibition (A431, 3 µM): 66% | target mRNA inhibition (A431, 15 µM): 79% | target mRNA inhibition (HepG2, 0.222 µM): 40% | target mRNA inhibition (HepG2, 0.667 µM): 63% | target mRNA inhibition (HepG2, 2 µM): 76% | target mRNA inhibition (HepG2, 6 µM): 86%

CTGGTCCATTACTTTCCTTC (sugars e5 d10 e5, PS)
target mRNA inhibition (HepG2, 3 µM): 50%
